The values below come from patent US20120195847A1 (Nektar Therapeutics, priority 2008, published 2012).

Data set [1] in a line: Stability of biphalin during pre-incubation under physiological-like conditions. The format is physicochemical. The settings on record: 72 hour incubation in assay buffer, pH 7.5 at 37° C.
Data set [2] deals with mice. The settings on record: intracerebroventricular (i.c.v); cited from earlier work.
The subject of data set [3] is mice. The settings on record: intrathecally (i.t.); cited from earlier work.
Another data set addresses T1, human δ opioid receptor (Homo sapiens, UniProt P41143).
T1 construct: expressed in transfected cells
Description: Radioligand competition binding assay, δ opioid receptor ([3H]DPDPE). The settings on record: 1 μM; pre-incubated 20 hours. The method, then:
Competition binding experiments were conducted by incubating membrane protein to equilibrium in triplicate in the presence of a fixed concentration of radioligand and increasing concentrations (0.1 nM to 10 μM) of test compound in 100 μL final volume. The radioligands used were specific for each receptor type, and the assay conditions are described in Table BIP6.3. Following incubations, the membranes were rapidly filtered through GF/B filter plate (presoaked with 0.5% polyethyleneimine), washed four times with cold 50 mM Tris-HCl, pH 7.5, and the bound radioactivity was then measured. Non-specific binding was measured in the presence of excess naloxone (100 μM); this value was subtracted from the total binding to yield the specific binding at each test concentration.
The test compounds were stored under acidic condition to stabilize the PEG conjugation.
Ki (affinity of test compound) was obtained using the Cheng Prusoff correction using experimental Kd (affinity of radioligand) values that were previously determined under these assay conditions.
(Displacement assays read how much labelled ligand stays bound in the presence of the test substance.)

Data set [4] can be described thus: Stability of the conjugate during purification. The settings on record: reaction mixture, acidic pH values. Type of data set: physicochemical.

T1 sequence (P41143 whole entry): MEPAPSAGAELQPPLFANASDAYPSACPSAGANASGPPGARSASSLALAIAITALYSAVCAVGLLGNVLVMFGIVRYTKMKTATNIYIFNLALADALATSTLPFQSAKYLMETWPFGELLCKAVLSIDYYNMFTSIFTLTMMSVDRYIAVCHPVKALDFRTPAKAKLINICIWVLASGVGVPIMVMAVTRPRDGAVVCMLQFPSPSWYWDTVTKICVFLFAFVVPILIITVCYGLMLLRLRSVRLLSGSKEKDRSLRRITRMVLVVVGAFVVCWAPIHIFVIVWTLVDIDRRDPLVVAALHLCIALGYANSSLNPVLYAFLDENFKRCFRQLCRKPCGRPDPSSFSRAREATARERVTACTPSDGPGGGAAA

In the case of `C[C@@H](NC(=O)[C@@H](N)Cc1ccc(O)cc1)C(=O)NCC(=O)N[C@@H](Cc1ccccc1)C(=O)NNC(=O)[C@H](Cc1ccccc1)NC(=O)CNC(=O)[C@@H](C)NC(=O)[C@@H](N)Cc1ccc(O)cc1` [Biphalin, Tyr-D-Ala-Gly-Phe-NH-NH-Phe-Gly-D-Ala-Tyr], in data set [1], the stability following incubation entry is recorded as “remained stable”. Further, the “potency in eliciting antinociception compared with morphine” value with mice [2] was 257 fold. For the same compound, the “potency compared with morphine, tail flick testing” value with mice [3] is recorded as 1000 fold.
Regarding “Di-mPEG-SBC-30K-biphalin: releasable di-conjugate of biphalin with N-m-PEG-Benzamide-p-Succinimidyl Carbonate (m-PEG-SBC-30K); not purified”, the “inhibition of specific binding at the highest test concentration” value in the data set with human δ opioid receptor is reported as at most 50%. Further, the “stability of the conjugate” value in data set [4] is reported as “instability of the conjugate, even at acidic pH values”.
